Test results from US20240197938A1, “ANTIMICROBIAL COMPOUNDS BASED ON GLUCOHEPTONIC ACIDS AND THEIR SALTS” (HARCROS CHEMICALS, INC., priority 2021, published 2024).

Experiments:
Type in all cases: cell-based
Escherichia coli = test: ASTM E2315-16 Time-Kill Procedure; details: for Log Reduction: 30 seconds; for log reduction: 10 minutes
Protocol: (§1) Select compounds were tested for antimicrobial activity using ASTM method […]-16 (Standard Guide for Assessment of Antimicrobial Activity using a Time-Kill Procedure). Six microbes were tested: Candida albicans, Staphylococcus aureus, Staphylococcus epidermidis. Escherichia coli, Salmonella abony, and Listeria monocytogenes. Four chlorhexidine salts were tested: chlorhexidine di-α-glucoheptonate (Sample G), chlorhexidine di-β73-glucoheptonate (Sample H), chlorhexidine digluconate (Sample I), and chlorhexidine diacetate (Sample P). Both chlorhexidine diglucoheptonate salts were prepared at a 2:1 molar ratio of glucoheptonic acid to chlorhexidine. Dilutions of each salt were prepared using sterile water (20-30 ppm hardness), to achieve the desired wt. % concentration. Benzalkonium salts were also tested using the same procedure as set forth in Example 13. The samples were benzalkonium chloride (C12-C16) (Sample C), benzalkonium chloride (C12-C14) (Sample D), benzalkonium chloride in combination with a stoichiometric amount of α-glucoheptonate (Sample F), and benzalkonium chloride in combination with a molar excess of α-glucoheptonate (Sample N). Sample F was prepared by mixing and extensively heating a stoichiometric quantity (1:1) of sodium α-glucoheptonate with benzalkonium chloride, typified by the C12-14 alkyl chain. Sample N was prepared by simply blending benzalkonium chloride, typified by the C12-16 chain, with a molar excess of sodium α-glucoheptonate (1.6:1). Both Samples F and N contain sodium chloride.

Salmonella abony = test: ASTM E2315-16 Time-Kill Procedure; details: for Log Reduction: 30 seconds; for log reduction: 10 minutes
Protocol: as §1

Listeria monocytogenes = test: ASTM E2315-16 Time-Kill Procedure; details: for Log Reduction: 30 seconds; for log reduction: 10 minutes
Protocol: as §1

[1] = test system: Staphylococcus epidermidis; test: ASTM E2315-16 Time-Kill Procedure; details: for Log Reduction: 30 seconds; for log reduction: 10 minutes
Protocol: as §1, with “concentration. Two glucoheptonic acids were evaluated for antimicrobial activity against the same six microbes as Example 13. Sample L was α-glucoheptonic acid. Sample M was β73-glucoheptonic acid.” for “concentration.”

Candida albicans = test: ASTM E2315-16 Time-Kill Procedure; details: for Log Reduction: 30 seconds; for log reduction: 10 minutes
Protocol: as §1, with “concentration. Two glucoheptonic acids were evaluated for antimicrobial activity against the same six microbes as Example 13. Sample L was α-glucoheptonic acid. Sample M was β73-glucoheptonic acid.” for “concentration.”

Staphylococcus aureus = test: ASTM E2315-16 Time-Kill Procedure; details: for Log Reduction: 30 seconds; for log reduction: 10 minutes
Protocol: as §1, with “concentration. Two glucoheptonic acids were evaluated for antimicrobial activity against the same six microbes as Example 13. Sample L was α-glucoheptonic acid. Sample M was β73-glucoheptonic acid.” for “concentration.”

[2] = test system: all microbes (Candida albicans, Staphylococcus aureus, Staphylococcus epidermidis, Escherichia coli, Salmonella abony, Listeria monocytogenes); test: ASTM E2315-16 Time-Kill Procedure, average across all microbes; details: for Log Reduction, Average, all microbes: 30 seconds; for average Log Reduction (LR) in microbial population across all microbes / log reduction, Average, all microbes: 10 minutes
Protocol: as §1, with “concentration. Samples G, H, I, and P were also tested at a concentration of 0.60 wt % active and evaluated for the average Log Reduction in microbial population at 10 minutes, across all microbes. A further test was conducted at a concentration of 1.0 wt % active and evaluated for the average Log Reduction in microbial population at 10 minutes, across all microbes.” for “concentration.”, “chloride. A further antimicrobial test was conducted to determine the log reduction at 10 minutes. Samples C, D, F, and N are as defined above.” for “chloride.”

Compound: CC(=O)O.CC(=O)O.NC(=N\CCCCCC/N=C(N)/N=C(\N)Nc1ccc(Cl)cc1)/N=C(\N)Nc1ccc(Cl)cc1 [Sample P, chlorhexidine diacetate]
- Log Reduction (Escherichia coli; 0.20% (wt. %)): 1.54
- Log Reduction (Escherichia coli; 0.60% (wt. %)): 1.59
- Log Reduction (Escherichia coli; 1.00% (wt. %)): 3.07
- Log Reduction (Salmonella abony; 0.20% (wt. %)): 2.17
- Log Reduction (Salmonella abony; 0.60% (wt. %)): 3.34
- Log Reduction (Salmonella abony; 1.00% (wt. %)): 4.34
- Log Reduction (Listeria monocytogenes; 0.20% (wt. %)): 1.29
- Log Reduction (Listeria monocytogenes; 0.60% (wt. %)): 1.36
- Log Reduction (Listeria monocytogenes; 1.00% (wt. %)): 1.55
- Log Reduction ([1]; 0.20% (wt. %)): 1.57
- Log Reduction ([1]; 0.60% (wt. %)): 3.57
- Log Reduction ([1]; 1.00% (wt. %)): 3.75
- Log Reduction (Candida albicans; 0.20% (wt. %)): 2.56
- Log Reduction (Candida albicans; 0.60% (wt. %)): 3.35
- Log Reduction (Candida albicans; 1.00% (wt. %)): 4.48
- Log Reduction (Staphylococcus aureus; 0.20% (wt. %)): 3.22
- Log Reduction (Staphylococcus aureus; 0.60% (wt. %)): 4.93
- Log Reduction (Staphylococcus aureus; 1.00% (wt. %)): 5.07
- Log Reduction, Average, all microbes ([2]; 0.20% (wt. %)): 2.06
- Log Reduction, Average, all microbes ([2]; 0.60% (wt. %)): 3.02
- Log Reduction, Average, all microbes ([2]; 1.00% (wt. %)): 3.71
- average Log Reduction (LR) in microbial population across all microbes ([2]; 0.60 wt % active): 4.09
- average Log Reduction (LR) in microbial population across all microbes ([2]; 1.0 wt % active): 5.17

Compound: benzalkonium chloride (C12-C14) [Sample D]
- Log Reduction (Escherichia coli; 0.10%): 2.87
- Log Reduction (Escherichia coli; 0.25%): 3.17
- Log Reduction (Escherichia coli; 0.50%): 3.29
- log reduction (Escherichia coli; 0.10%): 4.62
- log reduction (Escherichia coli; 0.25%): 4.77
- log reduction (Escherichia coli; 0.50%): 5.07
- Log Reduction (Salmonella abony; 0.10%): 2.70
- Log Reduction (Salmonella abony; 0.25%): 2.86
- Log Reduction (Salmonella abony; 0.50%): 3.04
- log reduction (Salmonella abony; 0.10%): 4.14
- log reduction (Salmonella abony; 0.25%): 4.34
- log reduction (Salmonella abony; 0.50%): 4.55
- Log Reduction (Listeria monocytogenes; 0.10%): 3.49
- Log Reduction (Listeria monocytogenes; 0.25%): 3.77
- Log Reduction (Listeria monocytogenes; 0.50%): 3.91
- log reduction (Listeria monocytogenes; 0.10%): 5.61
- log reduction (Listeria monocytogenes; 0.25%): 5.97
- log reduction (Listeria monocytogenes; 0.50%): 6.02
- Log Reduction ([1]; 0.10%): 3.39
- Log Reduction ([1]; 0.25%): 3.47
- Log Reduction ([1]; 0.50%): 3.75
- log reduction ([1]; 0.10%): 4.47
- log reduction ([1]; 0.25%): 4.98
- log reduction ([1]; 0.50%): 5.05
- Log Reduction (Candida albicans; 0.10%): 3.65
- Log Reduction (Candida albicans; 0.25%): 3.75
- Log Reduction (Candida albicans; 0.50%): 4.51
- log reduction (Candida albicans; 0.10%): 4.84
- log reduction (Candida albicans; 0.25%): 5.55
- log reduction (Candida albicans; 0.50%): 5.77
- Log Reduction (Staphylococcus aureus; 0.10%): 3.59
- Log Reduction (Staphylococcus aureus; 0.25%): 3.97
- Log Reduction (Staphylococcus aureus; 0.50%): 4.19
- log reduction (Staphylococcus aureus; 0.10%): 5.37
- log reduction (Staphylococcus aureus; 0.25%): 5.67
- log reduction (Staphylococcus aureus; 0.50%): 5.97
- Log Reduction, Average, all microbes ([2]; 0.10%): 3.28
- Log Reduction, Average, all microbes ([2]; 0.25%): 3.50
- Log Reduction, Average, all microbes ([2]; 0.50%): 3.78
- log reduction, Average, all microbes ([2]; 0.10%): 4.84
- log reduction, Average, all microbes ([2]; 0.25%): 5.21
- log reduction, Average, all microbes ([2]; 0.50%): 5.41

Compound: benzalkonium chloride (C12-C16) [Sample C]
- Log Reduction (Escherichia coli; 0.10%): 3.01
- Log Reduction (Escherichia coli; 0.25%): 3.29
- Log Reduction (Escherichia coli; 0.50%): 3.52
- log reduction (Escherichia coli; 0.10%): 4.59
- log reduction (Escherichia coli; 0.25%): 5.07
- log reduction (Escherichia coli; 0.50%): 5.07
- Log Reduction (Salmonella abony; 0.10%): 3.04
- Log Reduction (Salmonella abony; 0.25%): 3.34
- Log Reduction (Salmonella abony; 0.50%): 3.39
- log reduction (Salmonella abony; 0.10%): 4.44
- log reduction (Salmonella abony; 0.25%): 4.50
- log reduction (Salmonella abony; 0.50%): 4.50
- Log Reduction (Listeria monocytogenes; 0.10%): 3.72
- Log Reduction (Listeria monocytogenes; 0.25%): 3.87
- Log Reduction (Listeria monocytogenes; 0.50%): 3.99
- log reduction (Listeria monocytogenes; 0.10%): 5.60
- log reduction (Listeria monocytogenes; 0.25%): 5.99
- log reduction (Listeria monocytogenes; 0.50%): 6.02
- Log Reduction ([1]; 0.10%): 3.39
- Log Reduction ([1]; 0.25%): 3.50
- Log Reduction ([1]; 0.50%): 3.65
- log reduction ([1]; 0.10%): 4.79
- log reduction ([1]; 0.25%): 5.05
- log reduction ([1]; 0.50%): 5.05
- Log Reduction (Candida albicans; 0.10%): 4.18
- Log Reduction (Candida albicans; 0.25%): 4.35
- Log Reduction (Candida albicans; 0.50%): 4.56
- log reduction (Candida albicans; 0.10%): 5.95
- log reduction (Candida albicans; 0.25%): 6.35
- log reduction (Candida albicans; 0.50%): 6.43
- Log Reduction (Staphylococcus aureus; 0.10%): 3.89
- Log Reduction (Staphylococcus aureus; 0.25%): 4.19
- Log Reduction (Staphylococcus aureus; 0.50%): 4.37
- log reduction (Staphylococcus aureus; 0.10%): 5.86
- log reduction (Staphylococcus aureus; 0.25%): 6.07
- log reduction (Staphylococcus aureus; 0.50%): 5.05
- Log Reduction, Average, all microbes ([2]; 0.10%): 3.54
- Log Reduction, Average, all microbes ([2]; 0.25%): 3.76
- Log Reduction, Average, all microbes ([2]; 0.50%): 3.91
- log reduction, Average, all microbes ([2]; 0.10%): 5.21
- log reduction, Average, all microbes ([2]; 0.25%): 5.51
- log reduction, Average, all microbes ([2]; 0.50%): 5.35
